Laboratory results published in patent US20220016196A1, “Aloe Based Compositions Comprising Polysaccharides and Polyphenols for Regulation of Homeostasis of Immunity” (Unigen, Inc., priority 2020, published 2022).

What was measured:
Format in all cases: in vivo, rat
[1] = test system: IL-6; assay: LPS-induced acute lung injury, BAL IL-6 ELISA; details: rats
Description: (§1) The study was designed to evaluate the direct impact of an Aloe-based composition (UP360) made in the Example 9 in alleviating LPS-induced acute lung injury administered orally at 500 mg/kg and 250 mg/kg. […] In this study, we treated rats with the test materials orally for 7 days before model induction with LPS. On the 8th day, an hour after oral treatment, LPS was instilled intratracheally (i.t.) at 10 mg/kg dissolved in 0.1 mL/100 g PBS to each rat. The normal control rats received the same volume i.t. PBS only.
(§2) We sacrificed surviving animals 24 hours after intratracheal LPS administration to the rats. At necropsy, collected bronchoalveolar lavage (BAL) by intratracheal injection of 1.5 mL PBS into the right lobe followed by gentle aspiration at least 3 times. Pooled recovered fluid, centrifuged at 1500 rpm for 10 min at 4 ° C., and was used to measure cytokines (e.g. IL-6) and pulmonary protein levels. […]
(§3) The presence of IL-6 in undiluted rat broncho-alveolar lavage (BAL) from Example 23 was measured using the Rat IL-6 Quantikine ELISA kit from R&D Systems (product #: R6000B) as follows: undiluted BAL was added to a microplate coated with IL-6 antibody. […] After developing for 30 minutes at room temperature, a stop solution was added, and the absorbance was read at 450 nm. The concentration of IL-6 was calculated based on the absorbance readings of an IL-6 standard curve.

[2] = test system: TNF-α; assay: LPS-induced acute lung injury, serum TNF-α ELISA; details: rats
Description: as §1, §2
as §3, with “TNF-α” for “IL-6”, “serum” for “broncho-alveolar lavage (BAL)”, “rat TNF-α” for “Rat IL-6”, “(product#: RTA00)” for “(product #: R6000B)”, “serum” for “BAL”, “a TNF-α” for “an IL-6”

[3] = LPS-induced acute lung injury, BAL total protein (BCA); details: rats
Description: as §1, §2
The amount of total proteins in the broncho-alveolar lavage (BAL) samples from Example 23 was measured using the Pierce BCA Protein Assay kit from ThermoFisher Scientific (product #: 23225) as follows: BAL was diluted 1:5, mixed with bicinchoninic acid (BCA) reagent in a microplate, and incubated at 37° C. for 30 minutes. Absorbance was read at 580 nm, and protein concentration in BAL was calculated based on the absorbance readings of a bovine serum albumin standard curve.

[4] = test system: IL-1β; assay: LPS-induced acute lung injury, serum IL-1β ELISA; details: rats
Description: as §1, §2
as §3, with “IL-1β” for “IL-6”, “serum” for “broncho-alveolar lavage (BAL)”, “(product#: RLBOO)” for “(product #: R6000B)”, “serum” for “BAL”

[5] = test system: MIP-2/CINC-3; assay: LPS-induced acute lung injury, lung homogenate MIP-2/CINC-3 ELISA; details: rats
Description: as §1
We sacrificed surviving animals 24 hours after intratracheal LPS administration to the rats. At necropsy, collected bronchoalveolar lavage (BAL) by intratracheal injection of 1.5 mL PBS into the right lobe followed by gentle aspiration at least 3 times. […]
50 μL of each rat lung homogenate sample from Example 23 (10 per group for Vehicle, Sodium Butyrate (SB), UP360 Low dose, UP360 High dose, 7 per group for Control) and 50 μL of assay diluent buffer were added to the wells of a 96-well microplate coated with monoclonal CINC-3 antibody and allowed to bind for 2 hours. […] The absorbance of each well was read at 450 nm (with a 580 nm correction) and compared to a standard curve of CINC-3 in order to approximate the amount of CINC-3 in each rat lung homogenate sample.

[6] = test system: IL-10; assay: LPS-induced acute lung injury, BAL IL-10 ELISA; details: rats, LPS 10 mg/kg i.t., 24 hours post, oral, 500 mg/kg
Description: as §1, §2
as §3, with “IL-10” for “IL-6”, “undiluted” for “undiluted rat”, “(BAL) samples” for “(BAL)”, “R1000)” for “R6000B)”

[7] = LPS 10 mg/kg i.t., 24 hours post, oral, 500 mg/kg

CCCC(=O)[O-].[Na+] [Sodium Butyrate]
BAL IL-6 level, Mean ± SD [1, 7]: 1933.30 ± 1744.23 pg/mL | reduction in the level of BAL IL-6 vs vehicle ([1]; LPS i.t., 500 mg/kg oral): 37.7% | serum TNF-α level, Mean ± SD ([2]; LPS 10 mg/kg i.t., 24 hours post, oral 7 days pre-treatment, 500 mg/kg): 3.35 ± 1.73 pg/mL | reduction in serum TNF-α level vs vehicle control ([2]; LPS i.t., 500 mg/kg oral): 67.9% | BAL protein level, Mean ± SD [3, 7]: 2940.14 ± 2092.32 µg/mL | reduction in BAL total proteins vs vehicle ([3]; LPS i.t., 500 mg/kg oral): 30.2% | serum IL-1β level, Mean ± SD [4, 7]: 22.58 ± 9.46 pg/mL | reduction in serum IL-1β vs vehicle ([4]; LPS i.t., 500 mg/kg oral): 65.3% | lung homogenate MIP-2/CINC-3 level, Mean ± SD [5, 7]: 464.00 ± 220.32 pg/mL | reduction in CINC-3 level vs vehicle ([5]; LPS i.t., 500 mg/kg oral): 17.7% | BAL IL-10 level, Mean ± SD [6]: 154.84 ± 159.63 pg/mL
